Experimental data taken from US10864212B2, “Compositions and methods for treating retinal degradation” (University of Kentucky Research Foundation, priority 2013, dated 2020).
“Also recorded” adds a separate entry of the source.

Tests used:
HeLa cells = test: MTS proliferation assay of HeLa cells treated with Alu RNA expression plasmid (pAluA); format: cell-based, human; conditions: pAluA vs pUC19, d4T co-administration, FIG. 2
Alu RNA = test: Northern blot of Alu RNA levels in primary human RPE cells; format: cell-based
From the text: FIG. 4 provides another example of the results of Northern blotting using an Alu-specific probe.
FIG. 45 is a Northern blot of biotin-UTP-labeled Alu RNA-transfected primary human RPE cells.
As presented in FIG. 3, primary human RPE cells treated with antisense oligonucleotides targeting DICER1 (Dcr as) (lane 3 (third lane from left)) show increased Alu RNA levels in the nuclear compartment compared to control antisense oligonucleotides (Ctr as) (lane 1 (leftmost)), monitored by Northern blotting using an Alu-specific probe.
For example, primary human RPE cells may be transfected with Alu RNA, with or without d4T. […] U6 (bottom row) is shown as loading control for nuclear fraction in FIG. 4.
And FIG. 45 presents a Northern blot of biotin-UTP-labeled Alu RNA-transfected primary human RPE cells.

IRAK4 = test: LPS/ATP-induced IRAK4 phosphorylation in primary human RPE cells; format: cell-based; conditions: d4T 25/100 uM, FIG. 8
From the text: Vinculin was used as the loading control in the gel of FIG. 8. Additionally, as shown, LPS and ATP activate the NLRP3 inflammasome only in combination.
The loading control in FIG. 8 is vinculin. Furthermore, as shown, LPS and ATP activate the NLRP3 inflammasome only in combination, thus treatment with one or the other alone is useful as a control for this experiment.

rat P2X7 receptor = target: T1, rat P2X7 receptor (Rattus norvegicus, UniProt Q64663); test: Patch clamp analysis of P2X7 cation channel function, HEK293 stable cell line expressing rat P2X7 receptor; format: cell-based
T1 construct: expressed in transfected cells
T1 sequence (Q64663 1-595): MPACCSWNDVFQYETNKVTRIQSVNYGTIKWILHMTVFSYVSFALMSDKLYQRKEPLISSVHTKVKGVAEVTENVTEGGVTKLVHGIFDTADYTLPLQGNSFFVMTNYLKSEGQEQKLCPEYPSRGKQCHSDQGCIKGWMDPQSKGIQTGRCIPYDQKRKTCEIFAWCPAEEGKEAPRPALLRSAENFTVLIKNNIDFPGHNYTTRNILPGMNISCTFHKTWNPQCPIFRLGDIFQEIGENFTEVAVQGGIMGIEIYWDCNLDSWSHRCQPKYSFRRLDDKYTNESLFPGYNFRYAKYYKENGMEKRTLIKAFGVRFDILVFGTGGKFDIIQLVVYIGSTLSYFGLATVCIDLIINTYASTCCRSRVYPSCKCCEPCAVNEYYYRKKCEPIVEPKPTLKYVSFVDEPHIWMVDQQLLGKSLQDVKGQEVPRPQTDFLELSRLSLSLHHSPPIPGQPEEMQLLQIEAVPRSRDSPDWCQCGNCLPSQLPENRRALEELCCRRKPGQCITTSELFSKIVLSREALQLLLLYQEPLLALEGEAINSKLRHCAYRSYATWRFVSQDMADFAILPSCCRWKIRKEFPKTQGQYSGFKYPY

Cc1cn([C@H]2C=C[C@@H](CO)O2)c(=O)[nH]c1=O [d4T, 2′3′ dideoxythymidine]
Cell viability / cell death induced by Alu overexpression (MTS) (HeLa cells): prevented cell death induced by Alu overexpression
Alu RNA levels (normalized to u6 RNA) (Alu RNA; biotin-UTP-labeled Alu RNA-transfected primary human RPE cells, FIG. 45): without reducing Alu RNA levels; also recorded: did not reduce Alu RNA levels
Alu RNA levels in nuclear fraction (Alu RNA; human RPE cells transfected with Alu RNA, 1, 4, or 24 hours after transfection, FIG. 4): does not change Alu RNA levels
Alu RNA levels in nuclear compartment (Alu RNA; primary human RPE cells treated with antisense oligonucleotides targeting DICER1, FIG. 3): does not reduce Alu RNA levels
IRAK4 phosphorylation induced by LPS/ATP (IRAK4): blocks
P2X7 cation channel function (patch clamp) (rat P2X7 receptor): did not significantly modulate P2X7 cation channel function
